For the data set, the system named is Influenza virus strain A/Puerto Rico/8/34 (H1/N1). In kind it is biochemical.

“C9A10G11C12: leader length construct, CAGC within oligo U stretch, first base pairing A at position 10 (DNA CGACTCACTATAGTATTTTTCAGCTTTTTTTTTTCAAAATATTCCAAT; chemistry not fully specified; the letters are possibly those of the target site)”: the “transcripts containing capped leaders originating from the mutant” value turned out to be 9 transcripts.

For “C10A11G12C13: leader length construct, CAGC within oligo U stretch, first base pairing A at position 11 (DNA CGACTCACTATAGTATTTTTTCAGCTTTTTTTTTCAAAATATTCCAAT; chemistry not fully specified; the letters are possibly those of the target site)”, the “transcripts containing capped leaders originating from the mutant” value turned out to be 5 transcripts.

The record behind these values is patent US20110165226A1, “INFLUENZA CAP-LEADER SEQUENCE” (priority 2008, published 2011).
